{"source": "patent US11377659B2", "about": "“Short hairpin RNA (shRNA734) and use of same to positively select and eliminate genetically modified cells” (THE REGENTS OF THE UNIVERSITY OF CALIFORNIA, priority 2016, dated 2022)", "key": {"[1]": {"tested_on": "human T-cell line, CD34+ cells and primary peripheral blood mononuclear cells (PBMC)", "assay": "6TG-mediated positive selection of lentiviral vector-transduced cells in vitro", "assay_type": "cell-based", "settings": "cultured in the presence of 6TG", "description": "FIG. 4. Lentiviral vector delivery of HPRT shRNA results in efficient selections of HPRT knockdown by 6TG. Selection of HPRT knockdown Molt4-CCR5, PBMC and CD34+ cell by 6TG. The shRNA vector and control vector transduced cells were cultured with or without 6TG.\nThe potent and non-toxic HPRT shRNA enables 6TG-mediated positive selection of lentiviral vector-transduced human T-cell line, CD34+ cells and primary peripheral blood mononuclear cells (PBMC) in vitro. A lentivirus vector was utilized to deliver sh734 and to stably knockdown HPRT in human T cell lines, primary peripheral blood mononuclear cells and CD34+ hematopoietic stem/progenitor cells.\nFurthermore, the invention provides a combinatorial anti-HIV lentiviral vector expressing the HIV fusion inhibitor C46, and shRNAs for CCR5 and HPRT. […] Methotrexate (MTX) has been used to negatively select the transduced cells.\n(§1) The shRNA vector and control vector transduced cells were cultured with or without 6TG. […] Whole cell lysates were analyzed by Western blot after transduction at the indicated time points."}, "[2]": {"tested_on": "hypoxanthine guanine phosphoribosyltransferase (HPRT)", "assay": "HPRT knockdown in vector transduced cells (Western blot)", "assay_type": "cell-based, human", "settings": "lentiviral vector transduced cells", "description": "FIG. 6. HPRT knockdown in vector transduced cells. Whole cell lysates were analyzed by Western blot after transduction at the indicated time points.\nas §1"}, "[3]": {"tested_on": "Molt4CCR5, PBMC and CD34+ cells", "assay": "MTX mediated negative selection of HPRT knock down cells", "assay_type": "cell-based, human", "settings": "in vitro, 10 μM MTX; % EGFP monitored", "excerpt": "FIG. 8. Line graphs showing MTX mediated inhibition of Dihydrofolate reductase (DHFR) induced cell death in HPRT knock down cells.\nNegative selection of HPRT knock down cells by MTX is illustrated in FIG. 7, which presents a schematic illustration of MTX mediated inhibition of Dihydrofolate reductase (DHFR) induced cell death in HPRT knock down cells. […] The de novo synthesis occurs through a multi-step process and requires the contribution of four aminoacids, one PRPP, two folates and three ATP to synthesize an inosine monophosphate (IMP) molecule. HPRT catalyzes the salvage synthesis of inosine monophosphate (IMP) and guanosine monophosphate (GMP) from the purine bases hypoxanthine and guanine respectively, utilizing PRPP as a co-substrate. The HPRT defect results in the accumulation of its substrates, hypoxanthine and guanine, which are converted into uric acid by means of xanthine oxidase. Elevated APRT activity may also contribute to purine overproduction.\nMolt4CCR5 (A), PBMC (B) and CD34+ (C) cells were transduced with dual shRNA vector. The transduced cells were cultured with or without 10 μM MTX. Cells were monitored for % EGFP and given fresh media containing MTX every 3 days."}, "[4]": {"settings": "humans, estimated; cited from earlier work"}}}
{"compound": "sh734: short hairpin RNA directed to human HPRT, coding sequence SEQ ID NO: 1 (DNA AGGATATGCCCTTGACTATTTGTCCGACATAGTCAAGGGCATATCCT; expressed or natural sequence)", "values": [{"measurement": "positive selection of vector transduced cells by 6TG", "setting": "[1]", "result": "positively selected"}, {"measurement": "HPRT knockdown", "setting": "[2]", "result": "efficient HPRT knockdown"}]}
{"compound": "CN(Cc1cnc2nc(N)nc(N)c2n1)c1ccc(C(=O)N[C@@H](CCC(=O)O)C(=O)O)cc1", "note": "[MTX, methotrexate]", "values": [{"measurement": "negative selection of HPRT knock down cells by MTX", "setting": "[3]", "result": "negatively selected"}]}
{"compound": "Nc1nc2nc[nH]c2c(=S)[nH]1", "note": "[6TG, 6-thioguanine]", "values": [{"measurement": "Absorption after oral administration", "setting": "[4]", "result": 30, "unit": "%"}]}
